Patent publication US8791061B2, “Peptides for treating and preventing immune-related disorders, including treating and preventing infection by modulating innate immunity” (Soligenix, Inc., priority 2005, dated 2014)

Key:
[1] = molecular target: T1, DPPIV (Mus musculus, UniProt P28843); assay: Comparative DPPIV dose response curves in whole ICR mouse blood; format: biochemical; conditions: 2 h at 37° C., different concentrations
T1 construct: The plasma was transferred to a 96-well assay plate for the DPPIV assay; from tissue; host or cells: pooled heparinized whole blood of ICR mice; plasma isolated after incubation
Protocol: Dose response of SEQ. ID. NO. 5 of the present invention and SEQ. ID NO. 7 in PCT/CA02/01830, filed Dec. 2, 2002 (KSRIVPAIPVSLL). Peptides were incubated at different concentrations with whole ICR mouse blood for 2 h at 37° C. Blood incubated with acetate buffered saline (20 mM) was used as a control. Following incubation, plasma was isolated by centrifugation for 10 minutes at 4000 rcf. The substrate Gly-Pro-p-nitroanilide (0.8 mM) was added to the plasma and the enzymatic rate of DPPIV was determined by monitoring the increase in UV absorbance of the product p-nitroaniline. […] ID. NO.

[2] = tested on: LPS stimulated cytokine response; assay: Anti-inflammatory activity: ex vivo LPS stimulated cytokine response of PBMCs after in vivo peptide treatment; design: species or system mouse; conditions: 100 mg/kg intravenously, blood collected after 4 hours, PBMCs stimulated with LPS
Protocol: The effect of peptide treatment on the ex vivo LPS stimulated cytokine response was measured. In these studies, SEQ ID NO 5 was administered intravenously at 100 mg/kg and after 4 hours, blood was collected from each mouse. PBMCs were isolated and stimulated with LPS and the resulting cytokine levels were determined.

[3] = molecular target: T2, DPPIV (Homo sapiens, UniProt P27487); assay: Plasma DPPIV activity assay with human blood; format: biochemical; conditions: 2 hours at 37° C., dose response
T2 construct: from tissue; host or cells: heparinized whole blood of human volunteer donors; plasma isolated after incubation
Protocol: Human blood was obtained by qualified medical personnel from volunteer donors and collected in heparinized blood collection tubes. Blood was aliquoted into 300 μL aliquots. The peptides were dissolved in acetate buffered saline, pH 5.5. 30 μL of various concentrations were added to 300 μL of blood and mixed by resuspension (final concentration in blood as indicated in FIG. 6). For the control, 30 μL of blank acetate buffered saline was added to 300 μL of blood. Each concentration was prepared in triplicate, whereas the control was prepared in six replicates. The samples were incubated at 37° C. in closed microtubes for two hours. After incubation the plasma was isolated from the samples by centrifugation at 4000 rcf. The plasma was transferred to a 96-well assay plate for the DPPIV assay. The assay was started by adding 5 μL of the DPPIV substrate gly-pro-p-nitroanilide (16 mM in de-ionized water) to 95 μL of plasma (concentration in plasma 0.8 mM) and the increase in UV absorbance (405 nm) was monitored over a 20 min time period. The rate of the production of p-nitroaniline by enzymatic cleavage of gly-pro-p-nitroanilide was taken as the activity of DPPIV (Durinx C et al., (2001) “Reference values for plasma dipeptidyl-peptidase IV activity and their association with other laboratory parameters”. Clin Chem Lab Med. 39(2):155-9.)

[4] = tested on: methicillin-resistant Staphlococcus aureus (MRSA strain ATCC 33591, UC6685); assay: Enhancing the efficacy of antibiotic treatment, MRSA infection of CD-1 mice; format: in vivo; conditions: peptide 60 mg/kg IP 24 hours prior to infection, in combination with vancomycin s.c. 1 and 5 hours post-infection; relative to vehicle or antibiotic alone; 5 or 8 days
Protocol: Twenty-four hours prior to infection, peptide was administered at 60 mg/kg via IP injection to CD-1 mice (N=10 animals/group; FIG. 8A: male mice, FIG. 8B: female mice). Mice were then infected with methicillin-resistant Staphlococcus aureus (MRSA strain ATCC 33591 in FIG. 8A and UC6685 in FIG. 8B) via IP injection (1.5*10^7 in FIG. 8A and ˜4*10^5 in FIG. 8B). Vancomycin at the given dosage was administered twice subcutaneously 1 and 5 hours post-infection. Survival was monitored over 5 (FIG. 8A) or 8 (FIG. 8B) days.

T1 sequence (P28843 37-760 limits assumed): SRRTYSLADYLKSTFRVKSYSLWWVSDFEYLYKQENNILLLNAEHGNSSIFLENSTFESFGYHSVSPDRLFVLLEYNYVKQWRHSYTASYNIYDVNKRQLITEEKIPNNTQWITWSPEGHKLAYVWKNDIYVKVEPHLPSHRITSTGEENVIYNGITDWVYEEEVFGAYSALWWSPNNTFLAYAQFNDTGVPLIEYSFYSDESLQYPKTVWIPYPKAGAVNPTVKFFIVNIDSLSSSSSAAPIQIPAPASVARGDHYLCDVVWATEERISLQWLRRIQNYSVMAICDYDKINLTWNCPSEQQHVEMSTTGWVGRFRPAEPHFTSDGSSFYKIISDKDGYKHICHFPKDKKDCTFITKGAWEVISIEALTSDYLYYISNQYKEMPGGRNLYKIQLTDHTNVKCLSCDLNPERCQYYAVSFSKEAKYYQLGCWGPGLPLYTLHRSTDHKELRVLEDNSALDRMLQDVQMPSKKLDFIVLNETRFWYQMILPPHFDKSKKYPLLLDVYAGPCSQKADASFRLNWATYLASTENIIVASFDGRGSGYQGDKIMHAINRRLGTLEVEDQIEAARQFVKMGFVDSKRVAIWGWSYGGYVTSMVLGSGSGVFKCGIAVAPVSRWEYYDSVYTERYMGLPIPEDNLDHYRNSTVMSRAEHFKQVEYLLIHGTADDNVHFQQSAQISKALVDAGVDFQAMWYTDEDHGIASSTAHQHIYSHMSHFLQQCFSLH
T2 sequence (P27487 39-766 limits assumed): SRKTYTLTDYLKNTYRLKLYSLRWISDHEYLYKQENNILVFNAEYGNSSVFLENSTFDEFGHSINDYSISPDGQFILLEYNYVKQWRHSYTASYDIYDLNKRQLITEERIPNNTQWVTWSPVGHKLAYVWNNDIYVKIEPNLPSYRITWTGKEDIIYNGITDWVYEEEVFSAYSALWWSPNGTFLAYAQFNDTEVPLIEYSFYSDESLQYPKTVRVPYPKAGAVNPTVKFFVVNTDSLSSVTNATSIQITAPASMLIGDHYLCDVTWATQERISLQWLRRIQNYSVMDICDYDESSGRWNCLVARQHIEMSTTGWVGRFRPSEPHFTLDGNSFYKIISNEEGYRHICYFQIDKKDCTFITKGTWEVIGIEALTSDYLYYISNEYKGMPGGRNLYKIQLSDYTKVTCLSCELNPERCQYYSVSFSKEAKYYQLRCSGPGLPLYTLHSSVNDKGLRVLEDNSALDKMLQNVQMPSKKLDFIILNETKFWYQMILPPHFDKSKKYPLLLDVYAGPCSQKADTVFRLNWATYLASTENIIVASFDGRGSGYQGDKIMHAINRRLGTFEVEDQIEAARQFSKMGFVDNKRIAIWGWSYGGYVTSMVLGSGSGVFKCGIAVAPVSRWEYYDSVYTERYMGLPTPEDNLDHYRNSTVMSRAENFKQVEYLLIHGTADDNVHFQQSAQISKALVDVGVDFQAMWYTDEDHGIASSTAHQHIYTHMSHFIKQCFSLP

Row | Substance | DPPIV dose response [1] | inflammatory response to LPS stimulation (cytokine levels) [2] | plasma DPPIV activity in human blood [3] | survival [4]
1 | KSRIVPAIPVSLL [ID NO; 7 in PCT/CA02/01830, filed Dec; 2, 2002, reference compound] | A similar dose response was absent | – | – | –
2 | RIVPA [SEQ ID NO 5] | larger decrease in DPPIV activity with increasing peptide concentration | decreased inflammatory response to LPS stimulation | comparable to that determined in mouse blood | enhanced survival
3 | KSRIVP (IMMUNOLOGICAL PEPTIDE) [SEQ ID NO 1] | – | – | – | enhanced survival
